# US4714705A, “4-nitrogen substituted isoquinolinol compounds having cardiotonic, phosphodiesterase fraction III inhibiting properties and/or renal vasodilating properties” (Ortho Pharmaceutical Corporation, priority 1986, dated 1987)
# Read-outs that look alike come from different tables or passages of the source.
# Tests used:
# adult mongrel dogs [1] = experiment: Acute in vivo cardiotonic activity in anesthetized dogs; design: species or system dog (adult mongrel); conditions: Canis lupus familiaris, 8.75 mg/kg intravenous, relative to controls
# Experimental: The acute in vivo cardiotonic activity of compounds prepared according to the present invention was determined according to a modification of the procedure described by Alousi et al., Circ. Res., 45, 666 (1979).
# In particular, adult mongrel dogs were anesthetized with sodium pentobarbital and were artificially respired. Arterial pressure was monitored via a femoral artery, and the pulse pressure was used to trigger a cardiotachometer for heart rate. Left ventricular pressure was determined with a Millar catheter, and dP/dt (the change in ventricular pressure with time) was derived. Cardiac output was determined by measuring ascending aortic blood flow with an electromagnetic flow probe, and myocardial contractile force was measured with a Walton Brodie strain gauge sutured to the right ventricle. Lead II EKG was also recorded.
# A standard dose (10 μ/kg/min) of dopamine was administered to assess myocardial responsiveness.
# Compounds of the invention were administered by intravenous infusion or bolus oral administration, and the effects on cardiovascular parameters were determined.
# Dose related effects on the test compound on blood pressure (BP), heart rate (HR), maximum change in left ventricular pressure with time (dP/dt max), % change in cardiac force (CF) and the increase in mean arterial blood pressure relative to controls (MABP) were compared to pretreatment control values, expressed as a % change and rated for activity. Statistical evaluations were made using the appropriate parametric test against controls.
# adult mongrel dogs [2] = experiment: Renal vasodilating activity in anesthetized dogs; assay type: in vivo, dog (adult mongrel); conditions: Canis lupus familiaris, 6.2 mg/kg intravenous, relative to controls
# Experimental: Goldberg et al, J. Pharmacol. Exp. Ther., 163, 188 (1968), performed an investigation of the structural requirements for dopamine-like renal vasodilation of phenethylamines and apmorphine. The following procedure is a variation of the assay described in that report.
# Adult mongrel dogs were anesthetized and surgically prepared for electromagnetic measurement of renal artery blood flow. A carotid artery was cannulated for measuring arterial blood pressure, and drugs were administered intravenously or intraarterially (via the renal artery). Heart rate was monitored with a cardiotachometer. Renal vascular resistance was calculated as the ratio of mean arterial blood pressure/renal artery blood flow. Dopamine was infused intravenously at […] for ten minutes (at an infusion rate of about 1 ml/min) to determine responsiveness of each dog to renal dopamine receptor stimulation. Cumulative dose-response data were obtained by infusing a compound of this invention at progressively increasing (usually three-fold) infusion rates, esch dose being infused for five minutes. The maximum percent increase from pre-drug control in renal artery blood flow (or a decrease in renal vascular resistance) was determined for each infusion dose.
# RBF values are percent increase in renal blood flow. RVR values are percent increase in renal vascular resistance. MABP and HR are increases in mean arterial blood pressure and heart rate, respectively, relative to controls.
# [3] = read-out: HR, percent change in heart rate
# [4] = read-out: MABP, mean arterial blood pressure
structure (smiles),measurement,setting,value
"COc1cc2c(C)nc(O)c(NC(C)=O)c2cc1OC [Compound BG, 4-Acetamido-3-hydroxy-6,7-dimethoxy-1-methylisoquinoline Hemihydrate]",change in vivo at 8.75 mg/kg,"adult mongrel dogs [1]; read-out: CF, percent change in cardiac force",47%
same,change in vivo at 8.75 mg/kg,adult mongrel dogs [1]; [3],5%
same,change in vivo at 8.75 mg/kg,adult mongrel dogs [1]; [4],-3%
same,change in vivo at 8.75 mg/kg,"adult mongrel dogs [1]; read-out: dP/dt, maximum change left ventricular pressure with time",33%
same,change in vivo at 6.2 mg/kg,adult mongrel dogs [2]; [3],14%
same,change in vivo at 6.2 mg/kg,adult mongrel dogs [2]; [4],6%
same,change in vivo at 6.2 mg/kg,"adult mongrel dogs [2]; read-out: RBF, renal blood flow",39%
same,change in vivo at 6.2 mg/kg,"adult mongrel dogs [2]; read-out: RVR, renal vascular resistance",-24%
